Experimental data published in patent US9393316B2, “Cancer targeting peptides for enhancing anti-cancer drug delivery and therapeutic efficiencies” (priority 2014, dated 2016).

How the values were obtained:
HCT116 xenografts [1] = experiment: Immunohistochemical localization of phages in xenograft tumor and organs; format: in vivo, mice; details: tumor vs brain, heart, lungs, colon
Method: The tissue samples from in vivo phage homing experiment were embedded in frozen blocks. To evaluate the phage distribution in each tissue by immunohistochemistry, the frozen specimens were cut to 8-μm-thick sections and were collected on coated slides. The slides were washed with cold PBS to remove OCT and were fixed with 4% paraformaldehyde for 10 min at RT. To block endogenous peroxidase activity, the slides were soaked with 3% hydrogen peroxide in methanol for 30 min at RT. The nonspecific antibody binding sites were blocked by immersing the section with 1% BSA in PBS for 30 min at RT. The tissue sections were incubated with mouse anti-M13 monoclonal antibody at 1:250 dilution for 1 hr, followed by adding Super Enhancer reagent (Super SENSITIVE™ Polymer HRP Detection System/DAB, BioGenex) for 20 min and Poly-HRP reagent (BioGenex) for 30 min. After washing, the sections were developed with DAB (3,3′-diaminobenzidine) Chromogen (BioGenex) supplemented with Stable DAB buffer. The reaction was stopped by adding PBS. For nuclei staining, the slides were immersed in hematoxylin for 5 min, and were then mounted with mounting solution to terminate the reaction. The images of sections were taken and analyzed using automated acquisition system (TissueGnostics).

HCT116 xenografts [2] = experiment: In vivo tumor homing, phage titer in tumor and organs; design: species or system mice; details: 2×10^11 pfu i.v., PBS perfusion; vs brain, lungs, heart
Method: Non-obese diabetic-severe combined immunodeficiency (NOD/SCID) mice were injected subcutaneously (s.c.) into the dorsolateral flank with 5×10^6 HCT116 cells. When the xenograft tumor size reached 300±50 mm^3, the mice were injected intravascularly (i.v.) with 2×10^11 pfu of the targeting phage or control phage M13KO7. Seven min after injection, the mice were sacrificed and perfused through the heart with 50 mL of PBS to wash unbound phages. After perfusion, xenograft tumor and mouse organs were taken out, washed three times with cold PBS, and cut into pans, with some of them homogenized. The phages bound to each tissue sample were recovered by log-phase Escherichia coli ER2738 culture and were titered on LB/IPTG/X-Gal agar plates. In peptide competitive inhibition experiments, 2×10^9 pfu of phage was co-injected with 100 μg of corresponding peptide or an unrelated control peptide.
To investigate the targeting ability of the selected phage clones in vivo, mice bearing HCT116 xenografts (300 mm^3) were injected with 2×10^11 pfu of either the selected phages or control phage through the tail vein. Phages were circulated and then were perfused with PBS buffer to wash out non-specific binders in circulation. After perfusion, we recovered and determined the […] of phage in tumor masses and normal organs.

[3] = tested on: peripheral blood mononuclear cells (PBMC); experiment: Flow cytometry binding of phage clones to normal cells; details: human PBMC
Method: Cells were grown to 70-80% confluence and were harvested with 10 mM EDTA in PBS. Peripheral blood mononuclear cells were prepared by using Ficoll-Paque Plus density gradient separation. After washing and suspending the cells with FACS buffer (PBS containing 1% fetal bovine serum), the cells were incubated for 1 hr at 4° C. with 5×10^9, 1×10^9 cfu individual phage clones or control phage, respectively. After washing twice with FACS buffer, cells were incubated with mouse anti-M13 monoclonal antibody (GE Healthcare) at 1:2000 dilution for 1 hr followed by 30 min with phycoerythrin (PE)-conjugated goat anti-mouse secondary antibody (Jackson ImmunoResearch) at 1:250 dilution at 4° C. The emission fluorescence signals were measured using FACSCantoll (Becton Dickinson) and were analyzed by FlowJo software.

alpha-enolase (ENO1) = molecular target: T1, alpha-enolase (ENO1) (Homo sapiens, UniProt P06733); experiment: Flow cytometry binding of HCT74 phage after ENO1 knockdown or overexpression
T1 construct: endogenous in cells; host or cells: HCT116
T1 sequence (P06733 whole entry): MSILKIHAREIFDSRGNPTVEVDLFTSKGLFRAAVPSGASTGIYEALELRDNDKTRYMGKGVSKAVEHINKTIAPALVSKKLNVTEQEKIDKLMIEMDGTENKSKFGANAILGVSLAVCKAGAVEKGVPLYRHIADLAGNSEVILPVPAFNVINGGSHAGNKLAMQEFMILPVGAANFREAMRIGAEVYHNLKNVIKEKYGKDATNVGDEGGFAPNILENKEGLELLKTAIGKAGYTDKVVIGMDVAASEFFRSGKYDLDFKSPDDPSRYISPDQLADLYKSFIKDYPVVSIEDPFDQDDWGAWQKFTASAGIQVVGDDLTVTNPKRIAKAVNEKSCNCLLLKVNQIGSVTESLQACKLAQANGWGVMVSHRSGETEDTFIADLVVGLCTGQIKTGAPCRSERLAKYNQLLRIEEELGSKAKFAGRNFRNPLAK
Description: To further confirm alpha-enolase was the target proteins of the pHCT74 peptide, correlation between the binding activity of HCT74 phage and ENO1 expression was examined. We established stable cell lines expressing shRNAs targeting ENO1 gene (FIG. 4E) and tested the binding activity of HCT74 phage by flow cytometry. The binding activity of HCT74 phage was reduced after ENO1 gene knockdown (FIG. 4F). Instead, after transient overexpression of ENO1 gene, the binding activity of HCT74 phage was increased (FIG. 4G). […] In addition, HCT74 phage specific binding to the alpha enolase protein was also confirmed by direct ELISA assay (FIG. 4H).

HCT116 cells = experiment: ELISA screening of phage clones on HCT116 cells (cellular ELISA); format: binding, human; details: HCT116, cell line panel
Method: The selected phages were further identified by ELISA screening. 1×10^4 cells were seeded into each well of 96-well ELISA plates (Falcon, Calif., USA) overnight and were fixed with 2% paraformaldehyde or methanol/acetone (1:1) for 10 min at RT. The plates were washed twice with PBS and were blocked with 1% BSA in PBS (w/v) for 30 min at RT. Then individual phage clones were added and incubated for 1 hr at RT. Following washing three times with PBS, the plates were incubated with horseradish peroxidase (HRP)-conjugated mouse anti-M13 phage antibody (GE Healthcare) at 1:2000 dilution for 1 hr at RT. The plates were washed three times with PBS again, and were subsequently incubated with the peroxidase substrate o-phenylenediamine dihydrochloride (OPD; Sigma) plus H2O2. The reaction was terminated by 3 N HCl, and the absorbance was measured using microplate reader (Model 680, BioRad) at 490 nm.

- binding activity after ENO1 gene knockdown (alpha-enolase (ENO1); HCT116 cells with shRNAs targeting ENO1): reduced
- binding activity after transient overexpression of ENO1 gene (alpha-enolase (ENO1); flow cytometry): increased
Sequence: SSMDIVLRAPLM [HCT74]
- phage localization by immunostaining of tissue sections (HCT116 xenografts [1]): selectively localized in tumor tissues
- phage localization by immunostaining of tissue sections (HCT116 xenografts [1]; listed as HCT-74): strong accumulated in the tumor
- phage accumulation in tumor mass vs normal organs (phage titer) (HCT116 xenografts [2]): significantly accumulated in the tumor mass
- binding activity to PBMC (normal cells) by FACS [3]: not to normal cells
- binding by cellular ELISA (HCT116 cells): highly specific binding
